Assays:
Test in all cases: KINOMEscan (ScanMAX) kinase profiling
Assay type in all cases: binding
panel of 468 kinases [1] = target: T1, panel of 468 kinases (Homo sapiens, UniProt P22607, G697C); details: FGFR3(G697C); 1 μM; read-out: % control
T1 construct: purchased KINOMEscan (ScanMAX) service

panel of 468 kinases [2] = target: T2, panel of 468 kinases (Homo sapiens, UniProt Q9BWU1); details: CDK11; 1 μM; read-out: % control
T2 construct: purchased KINOMEscan (ScanMAX) service

panel of 468 kinases [3] = target: T3, panel of 468 kinases (Homo sapiens, UniProt Q15835); details: GRK1; 1 μM; read-out: % control
T3 construct: purchased KINOMEscan (ScanMAX) service
T3 sequence (Q15835 1-563): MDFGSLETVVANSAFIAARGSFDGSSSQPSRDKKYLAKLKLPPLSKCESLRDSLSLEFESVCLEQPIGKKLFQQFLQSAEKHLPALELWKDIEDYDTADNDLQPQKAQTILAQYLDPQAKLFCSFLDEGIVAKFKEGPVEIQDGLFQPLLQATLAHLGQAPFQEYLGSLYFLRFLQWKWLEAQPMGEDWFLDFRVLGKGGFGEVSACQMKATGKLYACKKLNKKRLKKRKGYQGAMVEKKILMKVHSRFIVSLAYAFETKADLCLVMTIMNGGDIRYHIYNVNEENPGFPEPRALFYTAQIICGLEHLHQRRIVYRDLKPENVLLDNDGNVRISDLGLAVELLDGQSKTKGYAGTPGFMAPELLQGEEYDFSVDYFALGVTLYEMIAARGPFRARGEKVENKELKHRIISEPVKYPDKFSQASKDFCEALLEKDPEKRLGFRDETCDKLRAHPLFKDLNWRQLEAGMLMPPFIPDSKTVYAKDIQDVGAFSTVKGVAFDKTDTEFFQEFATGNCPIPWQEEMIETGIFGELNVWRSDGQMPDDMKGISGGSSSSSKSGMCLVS

panel of 468 kinases [4] = target: T4, panel of 468 kinases (Homo sapiens, UniProt P10721, A829P); details: KIT(A829P); 1 μM; read-out: % control
T4 construct: purchased KINOMEscan (ScanMAX) service
T4 sequence (P10721 26-976 A829P): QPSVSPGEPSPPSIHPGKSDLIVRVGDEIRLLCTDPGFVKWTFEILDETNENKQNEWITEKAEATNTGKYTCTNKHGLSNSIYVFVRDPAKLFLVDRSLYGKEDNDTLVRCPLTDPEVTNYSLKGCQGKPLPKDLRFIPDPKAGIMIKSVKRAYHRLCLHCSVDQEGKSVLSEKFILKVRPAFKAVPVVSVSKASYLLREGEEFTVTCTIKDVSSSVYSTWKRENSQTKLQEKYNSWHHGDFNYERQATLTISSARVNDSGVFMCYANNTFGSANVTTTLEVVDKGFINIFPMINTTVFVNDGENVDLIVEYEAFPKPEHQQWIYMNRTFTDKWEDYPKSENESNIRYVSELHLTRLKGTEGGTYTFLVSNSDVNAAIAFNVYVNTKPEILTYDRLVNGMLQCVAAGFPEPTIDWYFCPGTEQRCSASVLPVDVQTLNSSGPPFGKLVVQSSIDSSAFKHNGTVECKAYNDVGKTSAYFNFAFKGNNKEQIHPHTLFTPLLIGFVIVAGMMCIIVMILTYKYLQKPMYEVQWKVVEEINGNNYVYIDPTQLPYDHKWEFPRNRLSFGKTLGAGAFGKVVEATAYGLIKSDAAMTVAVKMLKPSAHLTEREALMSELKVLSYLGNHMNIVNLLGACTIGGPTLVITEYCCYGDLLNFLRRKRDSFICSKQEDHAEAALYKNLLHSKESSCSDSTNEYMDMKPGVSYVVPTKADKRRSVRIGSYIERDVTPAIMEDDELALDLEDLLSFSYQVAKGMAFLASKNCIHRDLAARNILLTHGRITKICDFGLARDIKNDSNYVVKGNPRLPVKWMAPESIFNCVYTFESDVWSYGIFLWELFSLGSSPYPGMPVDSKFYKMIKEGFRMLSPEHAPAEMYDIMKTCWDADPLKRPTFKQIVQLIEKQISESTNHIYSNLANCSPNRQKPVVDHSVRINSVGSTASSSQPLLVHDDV

panel of 468 kinases [5] = target: T5, panel of 468 kinases (Homo sapiens, UniProt O75747); details: PIK3C2G; 1 μM; read-out: % control
T5 construct: purchased KINOMEscan (ScanMAX) service
T5 sequence (O75747 1-1486): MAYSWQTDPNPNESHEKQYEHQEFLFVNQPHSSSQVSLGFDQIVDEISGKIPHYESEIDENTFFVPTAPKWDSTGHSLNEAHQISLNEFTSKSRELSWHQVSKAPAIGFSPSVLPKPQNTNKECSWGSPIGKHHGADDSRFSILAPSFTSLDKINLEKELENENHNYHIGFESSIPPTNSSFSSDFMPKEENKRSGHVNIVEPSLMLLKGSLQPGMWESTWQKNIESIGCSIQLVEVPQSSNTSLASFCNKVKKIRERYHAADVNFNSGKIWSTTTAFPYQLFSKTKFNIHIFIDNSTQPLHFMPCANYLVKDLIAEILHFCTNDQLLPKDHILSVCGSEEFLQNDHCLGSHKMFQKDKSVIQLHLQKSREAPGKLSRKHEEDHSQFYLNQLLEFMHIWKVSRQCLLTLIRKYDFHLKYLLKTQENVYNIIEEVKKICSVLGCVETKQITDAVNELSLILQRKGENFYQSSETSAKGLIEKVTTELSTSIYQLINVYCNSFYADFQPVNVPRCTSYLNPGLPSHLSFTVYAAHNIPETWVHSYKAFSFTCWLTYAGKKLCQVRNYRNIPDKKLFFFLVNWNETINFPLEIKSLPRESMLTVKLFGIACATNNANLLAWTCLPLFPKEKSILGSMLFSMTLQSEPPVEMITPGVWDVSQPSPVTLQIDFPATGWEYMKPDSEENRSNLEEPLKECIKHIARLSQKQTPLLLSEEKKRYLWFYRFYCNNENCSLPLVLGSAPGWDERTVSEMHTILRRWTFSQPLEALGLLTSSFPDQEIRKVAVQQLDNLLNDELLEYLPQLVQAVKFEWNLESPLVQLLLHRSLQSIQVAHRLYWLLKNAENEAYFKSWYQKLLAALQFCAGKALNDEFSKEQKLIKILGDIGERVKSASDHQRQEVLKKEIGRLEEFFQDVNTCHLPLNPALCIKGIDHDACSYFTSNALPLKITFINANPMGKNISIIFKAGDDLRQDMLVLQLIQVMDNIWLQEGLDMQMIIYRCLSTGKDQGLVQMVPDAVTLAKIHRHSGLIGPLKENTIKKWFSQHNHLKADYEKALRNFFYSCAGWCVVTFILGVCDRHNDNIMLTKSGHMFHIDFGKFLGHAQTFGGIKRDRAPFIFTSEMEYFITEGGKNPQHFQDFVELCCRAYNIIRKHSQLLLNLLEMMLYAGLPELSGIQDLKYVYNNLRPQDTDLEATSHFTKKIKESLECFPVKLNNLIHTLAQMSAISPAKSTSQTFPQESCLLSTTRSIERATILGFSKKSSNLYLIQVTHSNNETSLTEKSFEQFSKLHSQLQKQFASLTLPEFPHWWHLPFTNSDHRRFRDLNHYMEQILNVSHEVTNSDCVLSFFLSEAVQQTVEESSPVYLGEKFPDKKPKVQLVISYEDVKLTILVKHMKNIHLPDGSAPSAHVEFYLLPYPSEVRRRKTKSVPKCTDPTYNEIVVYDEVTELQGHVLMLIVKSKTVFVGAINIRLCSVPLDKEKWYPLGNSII

panel of 468 kinases [6] = target: T6, panel of 468 kinases (Homo sapiens, UniProt Q9Y6M4); details: CSNK1G3; 1 μM; read-out: % control
T6 construct: purchased KINOMEscan (ScanMAX) service
T6 sequence (Q9Y6M4 whole entry): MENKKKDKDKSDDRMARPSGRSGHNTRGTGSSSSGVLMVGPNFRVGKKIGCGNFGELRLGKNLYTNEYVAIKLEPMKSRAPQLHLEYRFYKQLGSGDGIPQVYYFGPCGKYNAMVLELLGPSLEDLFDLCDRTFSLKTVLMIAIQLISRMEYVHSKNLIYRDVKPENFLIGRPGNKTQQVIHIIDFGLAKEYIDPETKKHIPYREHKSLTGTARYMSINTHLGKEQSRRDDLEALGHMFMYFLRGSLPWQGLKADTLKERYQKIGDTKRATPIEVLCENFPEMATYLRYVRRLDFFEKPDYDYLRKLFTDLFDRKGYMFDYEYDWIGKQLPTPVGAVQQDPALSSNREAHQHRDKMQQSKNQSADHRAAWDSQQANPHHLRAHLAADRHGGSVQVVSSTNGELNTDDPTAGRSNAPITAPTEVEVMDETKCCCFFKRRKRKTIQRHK

panel of 468 kinases [7] = target: T7, panel of 468 kinases (Homo sapiens, UniProt O95747); details: OSR1; 1 μM; read-out: % control
T7 construct: purchased KINOMEscan (ScanMAX) service
T7 sequence (O95747 whole entry): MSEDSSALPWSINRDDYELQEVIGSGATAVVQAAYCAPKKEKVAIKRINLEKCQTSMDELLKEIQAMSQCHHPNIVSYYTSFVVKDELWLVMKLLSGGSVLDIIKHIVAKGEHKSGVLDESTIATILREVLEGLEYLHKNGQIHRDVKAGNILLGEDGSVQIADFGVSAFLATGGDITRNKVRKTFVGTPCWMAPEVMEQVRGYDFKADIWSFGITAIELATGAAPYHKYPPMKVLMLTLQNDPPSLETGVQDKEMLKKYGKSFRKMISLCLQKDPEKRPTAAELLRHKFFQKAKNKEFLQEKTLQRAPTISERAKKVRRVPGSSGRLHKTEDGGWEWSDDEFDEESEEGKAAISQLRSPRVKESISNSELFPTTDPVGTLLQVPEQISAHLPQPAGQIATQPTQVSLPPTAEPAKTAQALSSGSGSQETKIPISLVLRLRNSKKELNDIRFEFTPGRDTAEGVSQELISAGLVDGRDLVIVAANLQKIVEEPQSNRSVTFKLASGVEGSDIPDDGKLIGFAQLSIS

T1 sequence (P22607 23-806 G697C): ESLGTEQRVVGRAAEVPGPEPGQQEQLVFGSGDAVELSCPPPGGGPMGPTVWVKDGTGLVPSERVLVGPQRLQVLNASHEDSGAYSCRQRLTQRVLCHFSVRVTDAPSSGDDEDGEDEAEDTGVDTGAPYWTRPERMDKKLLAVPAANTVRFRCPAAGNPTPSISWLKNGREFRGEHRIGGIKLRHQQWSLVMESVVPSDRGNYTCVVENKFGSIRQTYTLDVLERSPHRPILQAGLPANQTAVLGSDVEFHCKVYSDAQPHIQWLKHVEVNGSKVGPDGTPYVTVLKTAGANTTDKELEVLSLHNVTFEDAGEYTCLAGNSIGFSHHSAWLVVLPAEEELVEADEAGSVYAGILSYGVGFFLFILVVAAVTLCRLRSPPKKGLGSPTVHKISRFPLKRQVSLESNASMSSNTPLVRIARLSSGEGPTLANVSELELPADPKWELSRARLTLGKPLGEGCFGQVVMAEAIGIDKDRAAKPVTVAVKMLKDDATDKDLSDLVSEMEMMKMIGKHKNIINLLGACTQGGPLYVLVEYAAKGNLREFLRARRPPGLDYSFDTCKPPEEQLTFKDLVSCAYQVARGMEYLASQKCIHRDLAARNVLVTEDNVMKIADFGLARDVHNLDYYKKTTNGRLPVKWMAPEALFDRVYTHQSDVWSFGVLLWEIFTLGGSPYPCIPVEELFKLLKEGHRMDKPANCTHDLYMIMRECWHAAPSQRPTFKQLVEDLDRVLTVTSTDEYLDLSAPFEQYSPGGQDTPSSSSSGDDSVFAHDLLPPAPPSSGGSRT
T2 sequence (Q9BWU1 whole entry): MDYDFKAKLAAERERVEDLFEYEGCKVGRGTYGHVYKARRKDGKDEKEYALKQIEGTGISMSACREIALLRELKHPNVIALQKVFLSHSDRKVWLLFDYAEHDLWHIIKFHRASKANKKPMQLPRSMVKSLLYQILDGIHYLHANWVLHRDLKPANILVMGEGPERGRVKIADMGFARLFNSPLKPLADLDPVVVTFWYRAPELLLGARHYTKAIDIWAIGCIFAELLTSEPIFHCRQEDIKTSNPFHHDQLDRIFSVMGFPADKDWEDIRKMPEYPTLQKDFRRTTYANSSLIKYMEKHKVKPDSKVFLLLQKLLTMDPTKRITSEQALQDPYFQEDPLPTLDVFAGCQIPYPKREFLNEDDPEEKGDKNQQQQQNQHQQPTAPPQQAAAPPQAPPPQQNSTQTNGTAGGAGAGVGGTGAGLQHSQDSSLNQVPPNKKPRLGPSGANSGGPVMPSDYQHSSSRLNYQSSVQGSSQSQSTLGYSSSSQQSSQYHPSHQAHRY

CNc1nc(Nc2ccc(C(=O)N3CCC(N4CCOCC4)CC3)c3c2OCO3)nc2[nH]cc(Cl)c12 [Compound 75, (7-((5-chloro-4-(methylamino)-7H-pyrrolo[2,3-d]pyrimidin-2-yl)amino)benzo[d][1,3]dioxol-4-yl)(4-morpholinopiperidin-1-yl)methanone]
remaining binding at 1 µM (panel of 468 kinases [1]): 100% | remaining binding at 1 µM (panel of 468 kinases [2]): 98% | remaining binding at 1 µM (panel of 468 kinases [3]): 88% | remaining binding at 1 µM (panel of 468 kinases [4]): 50% | remaining binding at 1 µM (panel of 468 kinases [5]): 100% | remaining binding at 1 µM (panel of 468 kinases [6]): 18% | remaining binding at 1 µM (panel of 468 kinases [7]): 24%

CNc1nc(Nc2ccc(S(=O)(=O)N3CCC(N4CCOCC4)CC3)cc2OC)nc2[nH]cc(Cl)c12 [Compound 12, 5-chloro-N2-(2-methoxy-4-((4-morpholinopiperidin-1-yl)sulfonyl)phenyl)-N4-methyl-7H-pyrrolo[2,3-d]pyrimidine-2,4-diamine]
remaining binding at 1 µM (panel of 468 kinases [1]): 100% | remaining binding at 1 µM (panel of 468 kinases [2]): 100% | remaining binding at 1 µM (panel of 468 kinases [3]): 79% | remaining binding at 1 µM (panel of 468 kinases [4]): 76% | remaining binding at 1 µM (panel of 468 kinases [5]): 100% | remaining binding at 1 µM (panel of 468 kinases [6]): 96% | remaining binding at 1 µM (panel of 468 kinases [7]): 31%

CNc1nc(Nc2ccc(P3(=O)CCN(C4CCOCC4)CC3)cc2OC)nc2[nH]cc(Cl)c12 [Compound 77, 4-(4-((5-chloro-4-(methylamino)-7H-pyrrolo[2,3-d]pyrimidin-2-yl)amino)-3-methoxyphenyl)-1-(tetrahydro-2H-pyran-4-yl)-1,4-azaphosphinane 4-oxide]
remaining binding at 1 µM (panel of 468 kinases [1]): 100% | remaining binding at 1 µM (panel of 468 kinases [2]): 100% | remaining binding at 1 µM (panel of 468 kinases [3]): 88% | remaining binding at 1 µM (panel of 468 kinases [4]): 78% | remaining binding at 1 µM (panel of 468 kinases [5]): 93% | remaining binding at 1 µM (panel of 468 kinases [6]): 89% | remaining binding at 1 µM (panel of 468 kinases [7]): 10%

From patent publication US12479847B2 (DANA-FARBER CANCER INSTITUTE, INC., priority 2019, dated 2025)
